Patent publication US4962109A, “Insecticidally and acaricidally active pyrimidine esters and intermediates therefor” (Imperial Chemical Industries PLC, priority 1985, dated 1990)

Legend:
Type in all cases: in vivo
[1] = test system: Diabrotica balteata (rootworm larvae); test: Residual test on rootworm larvae (DB), Filter paper/maize seed, mortality; details: 48 h, residual, 2 days, read-out: DB grading of mortality
Protocol: (§1) The activity of the Product was determined using a variety of insect pests. The Product was used in the form of liquid preparations containing 500, 250 or 100 parts per million (ppm) by weight of the Product. The preparations were made by dissolving the Product in acetone and diluting the solutions with water containing 0.01% by weight of a wetting agent sold under the trade name "LISSAPOL" NX until the liquid preparations contained the required concentration of the Product. "Lissapol" is a Registered Trade Mark.
(§2) The test procedure adopted with regard to each pest was basically the same and comprised supporting a number of the pests on a medium which was usually a host plant or a foodstuff on which the pests feed, and treating either or both the pests and the medium with the preparations. The mortality of the pests was then assessed at periods usually varying from one to three days after the treatment.
(§3) The results of the tests are given in Table III for each of the Products, at the rate in parts per million given in the second column as a grading of mortality designated as A, B or C wherein A indicates 80-100% mortality or knockdown, B indicates 50-79% mortality or knockdown and C indicates less than 50% mortality or knockdown.

[2] = test system: Heliothis virescens (tobacco budworm - larvae); test: Residual test on tobacco budworm larvae (HV), Cotton leaf, mortality; details: 48 h, read-out: HV grading of mortality
Protocol: as §1, §2, §3
(tobacco budworm - larvae)

[3] = test system: Tetranychus urticae (spider mites - ova); test: Contact test on spider mites - ova (TUe), French bean leaf, mortality; details: 144 h, contact, 6 days, read-out: TUe grading of mortality
Protocol: as §1, §2, §3

[4] = test system: Musca domestica (houseflies - adults); test: Contact test on houseflies - adults (MD), Cotton wool/sugar, mortality; details: 72 h, 500 ppm, contact, 3 days, read-out: MD grading of mortality
Protocol: as §1, §2, §3

[5] = test system: Myzus persicae (aphids); test: Contact test on aphids (MP), Chinese Cabbage leaf, mortality; details: 72 h, contact, 3 days, read-out: MP grading of mortality
Protocol: as §1, §2, §3

[6] = test system: Tetranychus urticae (spider mites - adult); test: Contact test on spider mites - adult (TUa), French bean leaf, mortality; details: 72 h, contact, 3 days, read-out: TUa grading of mortality
Protocol: as §1, §2, §3

[7] = test system: Spodoptera exigua (lesser army worm - larvae); test: Residual test on lesser army worm larvae (SP), Cotton leaf, mortality; details: 48 h, residual, 2 days, read-out: SP grading of mortality
Protocol: as §1, §2, §3
(lesser army worm - larvae)

[8] = test system: Musca domestica (houseflies - adults); test: Knockdown test on houseflies - adults (MD/KD), Cotton wool/sugar; details: 500 ppm, 4 hours, read-out: MD/KD grading of knockdown
Protocol: as §1, §2
In the case of the species Musca domestica (housefly), additional tests to determine the knockdown effect of the compounds were performed. PG,163
as §3

[9] = test system: Blattella germanica (cockroach nymphs); test: Contact test on cockroach nymphs (BG/C), Plastic pot, mortality; details: 48 h, contact, 2 days, read-out: BG/C grading of mortality
Protocol: as §1, §2, §3
BG/C Blattella germanica

[10] = test system: Nephotettix cincticeps (green leaf hopper - nymphs); test: Contact test on green leaf hopper nymphs (NC), Rice plant, mortality; details: 48 h, 500 ppm, contact, 2 days, read-out: NC grading of mortality
Protocol: as §1, §2, §3
NC Nephotettix cincticeps

| Structure (SMILES) | mortality at 500 ppm [1] | mortality at 500 ppm [2] | mortality at 500 ppm [3] | mortality at 500 ppm [4] | mortality at 500 ppm [5] | mortality at 500 ppm [6] | mortality at 500 ppm [7] | pest or weed control at 500 ppm [8] | mortality at 500 ppm [9] | mortality at 500 ppm [10] | mortality at 100 ppm ([1]; 100 ppm) | mortality at 100 ppm [2] | mortality at 100 ppm ([3]; 100 ppm) | mortality at 100 ppm ([5]; 100 ppm) | mortality at 100 ppm ([6]; 100 ppm) | mortality at 100 ppm ([7]; 100 ppm) | mortality at 100 ppm ([9]; 100 ppm) |
| --- | --- | --- | --- | --- | --- | --- | --- | --- | --- | --- | --- | --- | --- | --- | --- | --- | --- |
| CC(C)(C)c1ncc(C(C(=O)OCc2c(F)c(F)c(CCl)c(F)c2F)C(C)(C)C)cn1 (racemic) [Compound 167, 4-chloromethyl-2,3,5,6-tetrafluorobenzyl (RS)-2-[2-(1,1-dimethylethyl)pyrimidin-5-yl]-3,3-dimethylbutanoate] | 80 to 100% | 80 to 100% | 80 to 100% | < 50% | 80 to 100% | 80 to 100% | 80 to 100% | < 50% | < 50% | – | – | – | – | – | – | – | – |
| CC(C)(C)c1ncc([C@H](C(=O)O[C@H](c2cccc(Oc3ccccc3)n2)C(F)(F)F)C(C)(C)C)cn1 (racemic) [Compound 32, (RS)-1-(6-phenoxypyrid-2-yl)-2,2,2-trifluoroethyl (RS)-2-[2-(1,1-dimethylethyl)pyrimidin-5-yl]-3,3-dimethylbutanoate] | 80 to 100% | 80 to 100% | 50 to 79% | 80 to 100% | 80 to 100% | 80 to 100% | 80 to 100% | 80 to 100% | < 50% | 80 to 100% | – | – | – | – | – | – | – |
| CCCc1c(F)c(F)c(COC(=O)C(c2cnc(C(C)(C)C)nc2)C(C)(C)C)c(F)c1F (racemic) [Compound 168, 4-(n-propyl)-2,3,5,6-tetrafluorobenzyl (RS)-2-[2-(1,1-dimethylethyl)pyrimidin-5-yl]-3,3-dimethylbutanoate] | < 50% | 50 to 79% | 80 to 100% | < 50% | 80 to 100% | 80 to 100% | 50 to 79% | < 50% | < 50% | 80 to 100% | – | – | – | – | – | – | – |
| COc1c(F)c(COC(C)C)c(F)c(F)c1COC(=O)C(c1cnc(C(C)(C)C)nc1)C(C)(C)C (racemic) [Compound 190, 2,3,5-trifluoro-6-methoxy-4-[(1-methyl)ethoxy]methylbenzyl (RS)-2-[2-(1,1-dimethylethyl)pyrimidin-5-yl]-3,3-dimethylbutanoate] | < 50% | 80 to 100% | < 50% | < 50% | 80 to 100% | 80 to 100% | 80 to 100% | 80 to 100% | < 50% | 80 to 100% | – | – | – | – | – | – | – |
| CCC(C)(C)C(C(=O)OCc1c(F)c(F)c(COC)c(F)c1F)c1cnc(C(C)(C)C)nc1 (racemic) [Compound 210, 4-methoxymethyl-2,3,5,6-tetrafluorobenzyl (RS)-2-[2-(1,1-dimethylethyl)-pyrimidin-5-yl]-3,3-dimethylpentanoate] | – | – | – | – | – | – | – | – | – | – | < 50% | < 50% | 80 to 100% | < 50% | 80 to 100% | < 50% | < 50% |
| CC(C)(C)c1ncc(C(C(=O)OCN2C(=O)C3=C(CCCC3)C2=O)C(C)(C)C)cn1 (racemic) [Compound 6, N-3,4,5,6-tetrahydrophthalimidomethyl (RS)-2-[2-(1,1-dimethylethyl)pyrimidin-5-yl]-3,3-dimethylbutanoate] | 50 to 79% | < 50% | – | < 50% | < 50% | 80 to 100% | < 50% | < 50% | < 50% | < 50% | – | – | – | – | – | – | – |
